Read-outs that look alike come from different tables or passages of the source.
Legend:
[1] = system: prostate cancer cell line LNCaP; test: LNCaP cell culture, growth and death (FIG. 5, FIG. 10); type: cell-based; settings: for number of cancer cells / anticancer effect: 10 mM, 7 days (FIG. 10)
Description: A dose dependent decrease in cell density was clearly detected with 2-deoxyribitol treatment, but not with ribitol treatment.
Less than 50% of cells and 10% of cells were detected with the treatment of 10 mM and 50 mM 2-deoxyribitol, respectively.

MCF7 cells = test: Mammosphere formation (FIG. 4); type: cell-based; settings: MCF7, Vitamin C 50 μM 5 days, then normal medium 6 days
Description: Cells were also treated with Vitamin C (VitC) at a concentration of 50 μM for 5 days (5d) and then returned to normal medium (NM) for 6 days (d6), without (lower left panel) or with 2-deoxyribitol (Drug, lower right panel). The formation of cancer mammospheres, considered to be cancer stem cell-rich population, can be seen in culture without Drug treatment, and with Vitamin C treatment only. Drug treatment greatly reduces to eliminates the formation of cancer mammospheres.
To examine mammosphere formation, MCF7 cells were grown for 11 days with or without 2-deoxyribitol (drug) treatment (FIG. 4, top panels). In addition, MCF7 cells were treated with Vitamin C at the concentration of 50 μM for 5 days and then returned to normal medium (“NM”) for 6 days (FIG. 4, lower panels).

[2] = system: alpha dystroglycan (α-DG); settings: cited from earlier work
[3] = system: breast cancer cell line MCF7; test: MCF7 cell culture, growth and death (FIG. 2); type: cell-based; settings: MCF7, 0.4-50 mM, 3 day treatment
Description: From left-top-to-bottom: Control, 0.4 mM Drug, 2 mM rib, and 10 mM Drug; From right-top-to-bottom: 0.4 mM rib; 2 mM Drug; 10 mM rib; and 50 mM Drug.
However, this effect was not related to the enhanced expression of glycosylation of α-DG.

[4] = Pei Lu et al., (2020) Sci Rep 10(1):4935

Compound | number of cancer cells / anticancer effect [1] | glycosylation of α-DG [2, 4] | further results
O=CC[C@H](O)[C@H](O)CO [2-deoxyribose, reference compound] | did not show the same anticancer effects | – | –
O=C1O[C@H]([C@@H](O)CO)C(O)=C1O [Vitamin C, reference compound] | – | – | number of mammospheres, Vitamin C then normal medium (MCF7 cells): greatly increased the number of well-defined mammospheres
OC[C@@H](O)[C@@H](O)[C@@H](O)CO [ribitol, reference compound] | did not show the same anticancer effects | – | effect on cell growth, death and cell density ([1]; 2-50 mM, 4 days): slightly increased; glycosylation of α-DG ([2]; some cancer cells including MCF7, background statement): enhances glycosylation of α-DG; effect on cell growth, death and morphology [3]: no clear effect on cell growth and morphology
O=P(O)(O)OC[C@@H](O)[C@@H](O)[C@@H](O)CO [ribitol-5-phosphate] | – | showed an effect of enhancing glycosylation of α-DG | –
O=C[C@H](O)[C@H](O)[C@H](O)CO [ribose] | – | showed an effect of enhancing glycosylation of α-DG | –
O=C(CO)[C@H](O)[C@H](O)CO [ribulose] | – | showed an effect of enhancing glycosylation of α-DG | –
